# Measured values: patent US7871644B2, “Pharmaceutical composition for oral use with improved absorption” (Astellas Pharma Inc., priority 2000, dated 2011)
# How the values were obtained:
# [1] = Oral administration of compound B tablets to beagles 30 minutes after feed; format: in vivo; conditions: fed beagles
# [2] = Number of insoluble particulate matter after adding magnesium chloride to compound B solution; conditions: compound B solution with sodium bicarbonate, magnesium chloride solution added, 0-60 minutes, FIG. 7
# Description: Another 2 ml distilled water were added to this solution and the number of insoluble particulate matter (2 μm or larger) was determined 0, 15, 30, and 60 minutes after addition using an insoluble particulate matter gauge (HIAC/ROYCO®, Pacific Scientific).
# Two milliliters aqueous 10 mg/ml magnesium chloride.6H2O solution were added to this prepared liquid, and the number of insoluble particulate matter (2 μm or larger) was determined 0, 15, 30 and 60 minutes after addition by the same method as in Experiment 11.
# Two milliliters aqueous 10 mg/ml magnesium chloride.6H2O were added to this prepared liquid, and the number of insoluble particulate matter (2 μm or larger) was determined 0, 15, 30 and 60 minutes after addition by the same method as in Experiment 11.
# [3] = Number of insoluble particulate matter after adding calcium chloride to bisphosphonate solution; conditions: calcium chloride solution added, 0-60 minutes
# Description: Another 2 ml distilled water were added to this liquid.
# Then 2 ml of an aqueous 10 mg/ml calcium chloride.2H2O solution were added to this liquid.
# [4] = Int. J. Pharm., 1993; cited from earlier work
# [5] = J. Pharm. Sci, 86, 1997; cited from earlier work
smiles,measurement,setting,value
O=P(O)(O)C(O)(Cc1cnc2ccccn12)P(=O)(O)O [compound B],Cmax and AUC when taken with food,[1],low Cmax and AUC
same,number of insoluble particulate matter (2 μm or larger),[2],increase in the number of insoluble particulate matter
same,number of insoluble particulate matter (10 μm or larger),"[3]; compound B solution, FIG. 2",increase in the number of insoluble particulate matter
C[C@]12CC[C@H]3[C@@H](CCC4=CC(=O)CC[C@@]43C)[C@@H]1CC[C@@H]2O [testosterone],share of the barrier to absorption accounted for by the mucous layer,[4],78%
same,reduction of the diffusion coefficient by the mucous layer,[5],50%
"CC(O)(P(=O)(O)O)P(=O)(O)O [compound D, (1-hydroxyethylidene)-1,1-bisphosphonate]",number of insoluble particulate matter (2 μm or larger),"[3]; compound D solution with sodium bicarbonate, FIG. 5",increase in the number of insoluble particulate matter
"O=P(O)(O)C(NC1CCCCCC1)P(=O)(O)O [compound C, [(cycloheptylamino)-methylene]bis-phosphonate]",number of insoluble particulate matter (10 μm or larger),"[3]; compound C solution with sodium bicarbonate, FIG. 4",increase in the number of insoluble particulate matter
